Test results published in publication PMC9718554, “Discovery of a fragment hit compound targeting D-Ala:D-Ala ligase of bacterial peptidoglycan biosynthesis” (Journal of Enzyme Inhibition and Medicinal Chemistry, 2022).
Like-named read-outs stand apart in the source and are kept apart here.

Target: T1, E. coli DdlB enzyme (D-alanine:D-alanine ligase) (Escherichia coli, UniProt P07862)
T1 construct: made in house; host or cells: E. coli
Assay: biochemical
Conditions: read-out: DdlB RA; for remaining activity at 1900 µM: tested concentration 1.9 mM; for remaining activity at 2100 µM: tested concentration 2.1 mM; for remaining activity at 1800 µM: tested concentration 1.8 mM; for remaining activity at 2000 µM: tested concentration 2.0 mM; for remaining activity at 2800 µM: tested concentration 2.8 mM; for remaining activity at 2300 µM: tested concentration 2.3 mM; for remaining activity at 1700 µM: tested concentration 1.7 mM; for remaining activity at 2500 µM: tested concentration 2.5 mM; for remaining activity at 2200 µM: tested concentration 2.2 mM; for remaining activity at 2400 µM: tested concentration 2.4 mM; for remaining activity at 2600 µM: tested concentration 2.6 mM

SMILES: O=C(O)Cn1nnc(-c2cccc(-n3cccn3)c2)n1 [Compound 8020-8838]
- remaining activity at 1900 µM (fragment library screening): 92%

SMILES: CCC[C@@H]1Cc2nc(O)c(C(=O)O)cc2CO1 [Compound 8330-0016]
- remaining activity at 2100 µM: 75%

SMILES: O=C(O)c1ccccc1NCCc1ccc(Cl)cc1 [Compound 8524-6914]
- remaining activity at 1800 µM (residual activity): 105%

SMILES: CCN1CCOC(=O)C1CC(=O)Nc1ccc(F)cc1 (stereo not shown) [Compound 8563-1154]
- remaining activity at 2000 µM (residual activity): 88%

SMILES: Oc1nc(-c2ccc(F)cc2)no1 [Compound C066-5406]
- remaining activity at 2800 µM: 97%

SMILES: Cc1ccc(-c2noc(O)n2)cc1 [Compound C066-5428]
- remaining activity at 2800 µM: 95%

SMILES: O=C(O)C1CCCCN1S(=O)(=O)c1ccc(F)cc1 (stereo not shown) [Compound C155-0476]
- remaining activity at 2100 µM (residual activity): 90%

SMILES: COc1ncccc1S(=O)(=O)N1CCCCC1 [Compound C200-8263]
- remaining activity at 2300 µM: 100%

SMILES: O=C(O)c1cccn2c(=O)c3cc(F)ccc3nc12 [Compound C200-9599]
- remaining activity at 1900 µM (residual activity): 85%

SMILES: Cc1ccc2nc3c(C(=O)O)cccn3c(=O)c2c1 [Compound C200-9601]
- remaining activity at 2000 µM (residual activity): 75%

SMILES: O=C(O)c1cccn2c(=O)c3cc(Cl)ccc3nc12 [Compound C200-9602]
- remaining activity at 1800 µM (residual activity): 78%

SMILES: CCOC(=O)c1cn[nH]c1O [Compound C201-1623]
- remaining activity at 3200 µM: 101%

SMILES: Cc1nc(N(C)C)ncc1C(=O)O [Compound C430-1216]
- remaining activity at 2800 µM: 88%

SMILES: COCC(C)NC(=O)c1cc(C)no1 (stereo not shown) [Compound C625-0074]
- remaining activity at 2800 µM: 96%

SMILES: CCCNc1c(N2CCCC(C(=O)OCC)C2)c(=O)c1=O (stereo not shown) [Compound C738-0118]
- remaining activity at 1700 µM: 108%

SMILES: N#Cc1ccccc1OCC(=O)O [Compound C790-0277]
- remaining activity at 2800 µM: 96%

SMILES: CC(=O)N1C(C(=O)O)CSC1c1ccc(C)cc1 (stereo not shown) [Compound C796-0200]
- remaining activity at 1900 µM: 90%

SMILES: O=C(Cn1cc2c(n1)CCCC2)Nc1ccc(F)cc1 [Compound C881-0402]
- remaining activity at 2000 µM (residual activity): 79%

SMILES: O=C(O)COCC(=O)Nc1ccc(-c2nn[nH]n2)cc1 [Compound D047-0107]
- remaining activity at 1800 µM (fragment library screening): 93%

SMILES: CCCCCC(C)n1nc(O)cc1N (stereo not shown) [Compound D068-0217]
- remaining activity at 2500 µM: 103%

SMILES: CCCC(CCC)n1nc(O)cc1N [Compound D068-0218]
- remaining activity at 2500 µM: 100%

SMILES: CCCCC(CC)n1nc(O)cc1N (stereo not shown) [Compound D068-0219]
- remaining activity at 2500 µM: 100%

SMILES: CC1CN(C)C(C)CC1n1nc(O)cc1N (stereo not shown) [Compound D068-0221]
- remaining activity at 2200 µM: 101%

SMILES: COCCn1c(CCC(=O)O)ccc1-c1ccccc1 [Compound D135-0001]
- remaining activity at 1800 µM: 90%

SMILES: O=C(O)CC1C(=O)NCCN1C1Cc2ccccc2C1 (stereo not shown) [Compound D236-0050]
- remaining activity at 2000 µM (residual activity): 103%

SMILES: C=CCn1c(N2CCC(C(=O)O)CC2)nc2ccccc21 [Compound D264-0028]
- remaining activity at 1800 µM (fragment library screening): 86%

SMILES: COc1ccc2ncc(C(=O)O)c(O)c2c1 [Compound D284-0199]
- remaining activity at 2300 µM: 66%

SMILES: CC1CCCN(C(=O)c2nc[nH]c2C(=O)NC(C)C)C1 (stereo not shown) [Compound D340-0776]
- remaining activity at 2000 µM (residual activity): 96%

SMILES: CCS(=O)(=O)N1CCCc2cc(C(=O)NC)ccc21 [Compound D348-0142]
- remaining activity at 2100 µM (residual activity): 92%

SMILES: CNC(=O)C1CCCN(S(=O)(=O)c2cccs2)C1 (stereo not shown) [Compound D356-2306]
- remaining activity at 1900 µM (residual activity): 86%

SMILES: CCS(=O)(=O)N1CCCC1c1ccc(C)cc1 (stereo not shown) [Compound D399-0123]
- remaining activity at 2400 µM: 89%

SMILES: CCS(=O)(=O)N1CCCC1c1ccccc1F (stereo not shown) [Compound D399-0515]
- remaining activity at 2300 µM: 95%

SMILES: O=c1[nH]c(O)ncc1S(=O)(=O)NC1CCCCC1 [Compound D668-0013]
- remaining activity at 1800 µM (residual activity): 99%

SMILES: Cc1ccc(NS(=O)(=O)c2cnc(O)[nH]c2=O)c(C)c1 [Compound D668-0040]
- remaining activity at 1700 µM: 91%

SMILES: O=c1[nH]c(O)ncc1S(=O)(=O)N1CCCC1 [Compound D668-0107]
- remaining activity at 2000 µM (residual activity): 94%

SMILES: Cc1nc(O)[nH]c(=O)c1S(=O)(=O)NC(C)(C)C [Compound D668-0207]
- remaining activity at 1900 µM (residual activity): 85%

SMILES: Cc1nc(O)[nH]c(=O)c1S(=O)(=O)N1CCCCC1 [Compound D668-0306]
- remaining activity at 1800 µM (residual activity): 89%

SMILES: O=C(O)Cn1ccc(=O)[nH]c1=O [Compound D702-0091]
- remaining activity at 2900 µM (tested concentration 2.9 mM): 89%

SMILES: CC(=O)c1cnc2c(C(=O)O)cnn2c1C [Compound D717-0038]
- remaining activity at 2300 µM: 104%

SMILES: O=C(O)c1cc2nccc(-c3ccccc3)n2n1 [Compound D717-0041]
- remaining activity at 2100 µM (residual activity): 74%

SMILES: Cc1cc(-c2ccc(Cl)cc2)nc2cc(C(=O)O)nn12 [Compound D717-0161]
- remaining activity at 1700 µM (fragment library screening): 88%

SMILES: O=C(O)c1cc(-c2ccccc2Cl)on1 [Compound D717-0173]
- remaining activity at 2200 µM (residual activity): 107%

SMILES: O=c1c(NCc2ccccn2)c(-c2ccccc2)c1=O [Compound E470-0290]
- remaining activity at 1900 µM: 96%

SMILES: CN(Cc1ccccc1)c1c(-c2ccccc2)c(=O)c1=O [Compound E470-0301]
- remaining activity at 1800 µM: 103%

SMILES: CCN(CC)CCNc1c(-c2ccccc2)c(=O)c1=O [Compound E470-0370]
- remaining activity at 1800 µM: 94%

SMILES: O=c1c(-c2ccccc2)c(N2CCOCC2)c1=O [Compound E470-0468]
- remaining activity at 2100 µM: 91%

SMILES: COc1ccc(-c2c(Nc3cccc(C)c3)c(=O)c2=O)cc1 [Compound E470-1008]
- remaining activity at 1700 µM: 100%

SMILES: O=c1c(-c2ccc(Cl)cc2)c(N2CCOCC2)c1=O [Compound E786-0171]
- remaining activity at 1800 µM: 141%

SMILES: O=C(O)Cn1nc(C(F)(F)F)c2c1CCCC2 [Compound F235-1104]
- remaining activity at 2400 µM: 95%

SMILES: CCN1CCN(c2ccc(NC(C)=O)c(C(=O)O)c2)CC1 [Compound F687-0683]
- remaining activity at 1700 µM (residual activity): 94%

SMILES: Cc1cc2nc(COC(=O)c3ccco3)cc(=O)n2o1 [Compound G265-0750]
- remaining activity at 1800 µM: 92%

SMILES: Cc1cc2nc(COC(=O)C(C)(C)C)cc(=O)n2o1 [Compound G265-0759]
- remaining activity at 1900 µM: 97%

SMILES: CCOc1c(Nc2ccc(OC)cc2)c(=O)c1=O [Compound G317-0026]
- remaining activity at 2000 µM: 93%

SMILES: CCOc1c(Nc2ccc(F)cc2)c(=O)c1=O [Compound G317-0061]
- remaining activity at 2100 µM: 96%

SMILES: O=c1c(O)c(NCc2ccco2)c1=O [Compound G317-0464]
- remaining activity at 2600 µM: 89%

SMILES: O=c1c(O)c(N2CCCCCC2)c1=O [Compound G317-0465]
- remaining activity at 2600 µM: 92%

SMILES: O=c1c(O)c(N2CCN(c3ccccc3)CC2)c1=O [Compound G317-0478]
- remaining activity at 1900 µM: 96%

SMILES: O=c1c(O)c(N2CCc3ccccc3C2)c1=O [Compound G317-0491]
- remaining activity at 2200 µM: 90%

SMILES: O=c1c(O)c(NC2CC2)c1=O [Compound G317-0511]
- remaining activity at 3300 µM (tested concentration 3.3 mM): 90%

SMILES: O=c1c(O)c(NCCc2ccccc2)c1=O [Compound G317-0516]
- remaining activity at 2300 µM: 92%

SMILES: CC(C)c1ccc(Nc2c(O)c(=O)c2=O)cc1 [Compound G317-0548]
- remaining activity at 2200 µM: 91%

SMILES: Cc1cc(Nc2c(O)c(=O)c2=O)no1 [Compound G317-0569]
- remaining activity at 2600 µM: 93%

SMILES: O=c1c(O)c(Nc2ccc(CN3CCCCC3)cc2)c1=O [Compound G317-0765]
- remaining activity at 1700 µM: 92%

SMILES: CCOC(=O)c1ccc2oc(=O)[nH]c2c1 [Compound G373-0551]
- remaining activity at 2400 µM: 92%

SMILES: Cn1cnc(S(=O)(=O)NC2CCCCCCC2)c1 [Compound G404-0427]
- remaining activity at 2200 µM (residual activity): 91%

SMILES: O=C(Nc1ccccc1)Nc1ccc2[nH]c(=O)oc2c1 [Compound G434-0096]
- remaining activity at 1900 µM: 75%

SMILES: O=C(Nc1ccc2[nH]c(=O)oc2c1)c1ccc(F)cc1 [Compound G434-0256]
- remaining activity at 1800 µM: 74%

SMILES: CCC(=O)Nc1ccc2[nH]c(=O)oc2c1 [Compound G434-0836]
- remaining activity at 2400 µM: 85%

SMILES: CCS(=O)(=O)N1CCCc2cc(NC(C)=O)ccc21 [Compound G504-0524]
- remaining activity at 1800 µM (residual activity): 95%

SMILES: O=C(NC1CC(=O)N(c2cccc(F)c2)C1)C1CC1 (stereo not shown) [Compound G856-7454]
- remaining activity at 2300 µM: 91%

SMILES: OB(O)c1ccc2[nH]ncc2c1 [Compound H024-0113]
- remaining activity at 3100 µM (tested concentration 3.1 mM): 93%

SMILES: CN(C)Cc1cc2cc(O)c(-c3cccnc3)cc2n1C [Compound H027-0236C]
- remaining activity at 1600 µM (residual activity, tested concentration 1.6 mM): 84%

SMILES: CCc1cc(C2CCCN2S(=O)(=O)CC)on1 (stereo not shown) [Compound J005-1008]
- remaining activity at 1900 µM: 98%

SMILES: O=C(O)C1=CC(c2cc(F)cc(F)c2)n2nnnc2N1 (stereo not shown) [Compound J043-0061]
- remaining activity at 2100 µM (residual activity): 101%

SMILES: COc1ccc(CNc2ccccc2C(=O)O)cc1 [Compound K783-0843]
- remaining activity at 1900 µM (residual activity): 101%

SMILES: O=C(O)c1ccccc1NCc1ccccc1Cl [Compound K783-0963]
- remaining activity at 1900 µM (residual activity): 95%

SMILES: O=C1CC(C(=O)O)c2ccccc2N1 (stereo not shown) [Compound K784-1648]
- remaining activity at 2600 µM: 87%

SMILES: O=C(O)c1ccccc1C(=O)NCc1ccccc1 [Compound K786-0839]
- remaining activity at 2000 µM (fragment library screening): 98%

SMILES: O=c1[nH]c2ccc(S(=O)(=O)N3CCCCC3)cc2o1 [Compound K893-0198]
- remaining activity at 1800 µM: 100%

SMILES: CCOc1c(NC2CCCCC2)c(=O)c1=O [Compound K906-2368]
- remaining activity at 2200 µM: 76%

SMILES: CCOc1c(N2CCC(C)CC2)c(=O)c1=O [Compound K906-2369]
- remaining activity at 2200 µM: 71%

SMILES: O=c1c(N2CCCC2)c(N2CCCC2)c1=O [Compound K906-4052]
- remaining activity at 2300 µM: 98%
